{"source": "paper PMC2721771", "about": "(Purinergic Signalling, 2008)", "key": {"[1]": {"test": "Storage stability of the trimethylstannyl precursor", "type": "physicochemical", "conditions": "−8 °C for several months"}, "[2]": {"target": "T1, rat A3 adenosine receptor (Rattus norvegicus, UniProt P28647)", "T1 sequence (P28647 1-320)": "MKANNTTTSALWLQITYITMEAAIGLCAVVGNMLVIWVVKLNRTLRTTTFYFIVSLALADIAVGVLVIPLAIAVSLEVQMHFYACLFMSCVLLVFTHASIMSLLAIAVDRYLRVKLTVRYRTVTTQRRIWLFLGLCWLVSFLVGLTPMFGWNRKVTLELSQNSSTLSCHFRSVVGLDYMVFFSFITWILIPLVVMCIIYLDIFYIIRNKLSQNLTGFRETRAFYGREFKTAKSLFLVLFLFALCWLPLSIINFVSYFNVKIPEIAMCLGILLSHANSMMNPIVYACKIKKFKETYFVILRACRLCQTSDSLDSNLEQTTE", "type": "binding", "conditions": "vs [125I]MRS1898 0.1 nM, rA3AR in CHO membranes, mean ± SEM"}, "rA3AR": {"target": "rA3AR", "conditions": "cited from earlier work"}, "hA3AR": {"target": "hA3AR", "conditions": "cited from earlier work"}, "mouse A3AR": {"tested_on": "mouse A3AR", "conditions": "cited from earlier work"}, "rA1AR": {"target": "rA1AR", "conditions": "cited from earlier work"}}, "note": "Like-named read-outs stand apart in the source and are kept apart here."}
{"smiles": "CNC(=O)[C@]12C[C@@H]1[C@@H](n1cnc3c(NCc4cccc([125I])c4)nc(Cl)nc31)[C@H](O)[C@@H]2O", "note": "[Compound 10]", "values": [{"measurement": "stability upon storage", "setting": "[1]", "value": "stable"}]}
{"smiles": "CCCOC(=O)c1c(-c2ccccc2)nc(CC)c(C(=O)SCC)c1CCC", "note": "[MRS1523, 5-propyl-2-ethyl-4-propyl-3-(ethylsulfanylcarbonyl)-6-phenylpyridine-5-carboxylate]", "values": [{"measurement": "Ki", "setting": "[2]", "value": "518 ± 236", "unit": "nM"}]}
{"smiles": "CNc1ncnc2c1ncn2[C@@H]1O[C@H](CO)[C@@H](O)[C@H]1O", "note": "[N^6-methyladenosine]", "values": [{"measurement": "Ki", "setting": "rA3AR; rA3AR", "value": 6390, "unit": "nM"}, {"measurement": "Ki", "setting": "hA3AR", "value": 9.3, "unit": "nM"}]}
{"smiles": "CCCCC#Cc1nc(NC)c2ncn([C@@H]3O[C@H](CO)[C@@H](O)[C@H]3O)c2n1", "note": "[[^3H]HEMADO, 2-hexyn-1-yl-N^6-methyladenosine]", "values": [{"measurement": "effect on the rA3AR", "setting": "rA3AR; rA3AR", "value": "no effect"}, {"measurement": "Kd", "setting": "hA3AR", "value": 1.1, "unit": "nM"}]}
{"smiles": "CCCn1cc2c(nc(NC(=O)Nc3ccc(OC)cc3)n3nc(-c4ccco4)nc23)n1", "note": "[[^3H]MRE 3008F20, 5-[[(4-methoxyphenyl)amino]carbonyl]amino-8-propyl-2-(2-furyl)-pyrazolo[4,3-e]1,2,4-triazolo[1,5-c]pyrimidine]", "values": [{"measurement": "binding to the mouse A3AR", "setting": "mouse A3AR", "value": "do not bind effectively"}, {"measurement": "binding to the rA3AR", "setting": "rA3AR; rA3AR", "value": "do not bind effectively"}]}
{"smiles": "CCNC(=O)[C@H]1O[C@@H](n2cnc3c(N)ncnc32)[C@H](O)[C@@H]1O", "note": "[[^3H]NECA, 5′-N-ethylcarboxamidoadenosine]", "values": [{"measurement": "binding affinity at the rA3AR", "setting": "rA3AR; rA3AR", "value": "weak"}]}
{"smiles": "CC[C@@H]1CN2C(=O)N(C)c3nc(-c4ccccc4)[nH]c3C2=N1", "note": "[[^3H]PSB-11, (R)-4-methyl-8-ethyl-2-phenyl-imidazo[2,1-i]purin-5-one]", "values": [{"measurement": "binding to the mouse A3AR", "setting": "mouse A3AR", "value": "do not bind effectively"}, {"measurement": "binding to the rA3AR", "setting": "rA3AR; rA3AR", "value": "do not bind effectively"}]}
{"smiles": "CNC(=O)[C@H]1O[C@@H](n2cnc3c(NCc4ccc(N)c(I)c4)ncnc32)[C@H](O)[C@@H]1O", "note": "[[^125I]I-AB-MECA, N^6-(4-amino-3-iodobenzyl)-5′-N-methylcarboxamidoadenosine]", "values": [{"measurement": "Kd", "setting": "rA1AR; read-out: affinity for rA1AR, radioligand affinity, A1", "value": 3.42, "unit": "nM"}, {"measurement": "Kd", "setting": "rA3AR; rat A3AR", "value": "~1", "unit": "nM"}, {"measurement": "Kd", "setting": "rA3AR; read-out: affinity for rA3AR, radioligand affinity, A3", "value": 1.48, "unit": "nM"}]}
{"smiles": "Nc1ccc(CCNc2ncnc3c2ncn3[C@@H]2O[C@H](CO)[C@@H](O)[C@H]2O)cc1I", "note": "[[^125I]I-APNEA, N^6-(4-amino-3-iodophenylethyl)-adenosine]", "values": [{"measurement": "Kd", "setting": "rA1AR; rA1AR", "value": 1.32, "unit": "nM"}, {"measurement": "Kd", "setting": "rA3AR; rA3AR", "value": 15, "unit": "nM"}]}
